Paper PMC11550998, “Novel 5-HT7 receptor antagonists modulate intestinal immune responses and reduce severity of colitis” (American Journal of Physiology - Gastrointestinal and Liver …, 2024)

Experiments:
[1] = Mouse in vivo pharmacokinetic studies; parameters: species or system C57BL/6 male mice
Procedure: Adult C57BL/6 male mice (2–4 mo old, body weight ranging from 20 to 25 g, Charles River Laboratories) were maintained under controlled temperature (23 ± 1°C) and lighting (lights on 6:00 AM–6:00 PM) with food and water provided ad libitum. Pharmacokinetic studies were performed either via intravenous bolus infusion or through oral gavage. Mice were administered each compound intravenously by tail vein injection (1 mg/kg) or orally through gavage (5 mg/kg). Serial blood samples were collected at 5, 15, and 30 min and 1, 2, 4, 8, and 24 h after intravenous administration, and at 15, 30 min, and 1, 2, 4, 8, and 24 h after oral gavage administration. All blood samples were centrifuged at 1,500 g for 5 min. Pharmacokinetic study procedures were approved by Temple University’s Institutional Animal Care and Usage Committee and were in accordance with National Institutes of Health (NIH) guidelines. For all in vivo efficacy studies, experiments were approved by the animal ethics committee of McMaster University and conducted under Canadian guidelines for animal research.
Plasma concentrations were determined using an LC-MS/MS method. Briefly, 100-µL acetonitrile with an internal standard solution (Diltiazem, 0.1 μg/mL) was added to 50-µL plasma or tissue homogenate. After being vortexed for 1 min, the mixture was centrifuged at 3,000 g for 5 min. LC-MS/MS analysis was carried out using a high-performance liquid chromatography system consisting of an Agilent 1100 system interfaced to an API4000 SCIEX triple-quadrupole tandem mass spectrometer (Applied Biosystems/MDS Sciex, Foster City, CA). MC-170073, MC-230078, MC-230079, and the internal standard were separated by using a Phenomenex (Torrance, CA) C18 column (2.0 × 50 mm). The mobile phase consisted of solvent A (0.1% formic acid in water) and solvent B (0.1% formic acid in acetonitrile). A linear gradient of solvent B from 5 to 95% was used. The detection and quantification of analytes were performed with the m/z transition 347/191 for MC-170073, MC-230078, and MC-230079, and m/z 415/178 for diltiazem.

[2] = tested on: colitis induced by DSS and TNBS; details: 5-HT4 receptor agonist; cited from earlier work
[3] = tested on: DSS exposure at 4% wt/vol; parameters: method as in PMID 25072499; details: DSS 4% wt/vol; untreated animals 33%; cited from earlier work
DSS-induced colitis = tested on: DSS-induced colitis; parameters: method as in PMID 23554310; details: acute DSS-induced colitis, vs controls; cited from earlier work
[4] = tested on: 2,4,6-trinitrobenzenesulfonic acid (TNBS)-induced colitis; parameters: method as in PMID 23554310, PMID 27047383; details: cited from earlier work
[5] = tested on: naive CD4+ T cells expressing 5-HT7 receptors; parameters: method as in PMID 17158224; details: ex vivo; cited from earlier work
[6] = male, C57BL/6, plasma, IV, 1 mg/kg
[7] = male, C57BL/6, plasma, oral gavage, 5 mg/kg

Work on CCC1(CC)C[C@H](CCN2CCN(c3ccc(O)cc3)CC2)OC1=O [MC-230079] yielded a bioavailability ([1]; male, C57BL/6, mouse, plasma, oral, 5 mg/kg, 5 mg/kg oral vs 1 mg/kg IV, read-out: %F (oral bioavailability)) of 10.8%, an AUC [1, 6] of 97 ng·h/mL and a Cmax [1, 6] of 148 ng/mL. It also gave a Tmax [1, 6] of 10 min, a clearance [1, 6] of 4.2 mL/min and a half-life [1, 6] of 20.1 min. The AUC [1, 7] was 52.5 ng·h/mL, the Cmax [1, 7] was 57 ng/mL and the Tmax [1, 7] was 30 min. It also gave a half-life [1, 7] of 34.9 min and a CL ([1]; oral gavage, 5 mg/kg) of 2.07 L/h.

In the case of [H]/N=C(/NCCCCC)N/N=C/c1c[nH]c2ccc(OC)cc12 [tegaserod], the “effect on development of colitis” value [2] is listed as “protective actions”.

In the case of CC1CCN(CC[C@H]2CCCN2S(=O)(=O)c2cccc(O)c2)CC1 [SB-269970, (R)-3-(2-(2-(4-methylpiperidin-1-yl)-ethyl)pyrrolidine-1-sulfonyl)phenol], the mortality rate [3] is given as greater than 60%, the “severity of colitis and production of proinflammatory cytokines” value (DSS-induced colitis) is given as “significantly reduced” and the “effect on TNBS-induced colitis” value [4] is given as “only a minor impact”. The “rapid T cell responses upon 5-HT exposure” value [5] was “abrogated”.
